Earlier results as cited in publication PMC7190335 (Science Advances, 2020).

Target: T1, COUP-TFII (Homo sapiens, UniProt P24468)
T1 sequence (P24468 1-414): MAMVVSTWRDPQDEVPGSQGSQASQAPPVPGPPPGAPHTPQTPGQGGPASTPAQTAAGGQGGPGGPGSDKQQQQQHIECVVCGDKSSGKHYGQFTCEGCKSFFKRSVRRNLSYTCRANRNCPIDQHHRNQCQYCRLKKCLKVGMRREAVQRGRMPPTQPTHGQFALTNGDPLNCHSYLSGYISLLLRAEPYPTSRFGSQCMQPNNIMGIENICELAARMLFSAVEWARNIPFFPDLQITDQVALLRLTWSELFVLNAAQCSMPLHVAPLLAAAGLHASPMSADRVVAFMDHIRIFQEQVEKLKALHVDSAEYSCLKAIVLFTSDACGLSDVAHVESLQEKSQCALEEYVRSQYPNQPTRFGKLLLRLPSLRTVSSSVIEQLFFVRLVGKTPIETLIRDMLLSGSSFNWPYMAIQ

COc1ccc(O)c2ccccc12 [4-methoxynaphthol compound, 4-methoxynaphthol]
concentration needed to reduce COUP-TFII activity: up to 100 μM
